Patent US8163724B2, “Glucocorticosteroids, processes for their preparation, pharmaceutical compositions containing them and their use in therapy” (AstraZeneca AB, priority 2007, dated 2012)

target: T1, recombinant human GR (Homo sapiens, UniProt P04150); assay: Human Glucocorticoid Receptor (GR) Assay (fluorescence polarization, Panvera/Invitrogen kit); format: binding; details: fluorescence polarization; GS Red tracer; 2 hours at room temperature; 100% control 10 μM Dexamethasone; read-out: Inhibition of GR binding, IC50
T1 construct: purchased Panvera/Invitrogen P2812 (kit P2893)
T1 sequence (P04150 1-777): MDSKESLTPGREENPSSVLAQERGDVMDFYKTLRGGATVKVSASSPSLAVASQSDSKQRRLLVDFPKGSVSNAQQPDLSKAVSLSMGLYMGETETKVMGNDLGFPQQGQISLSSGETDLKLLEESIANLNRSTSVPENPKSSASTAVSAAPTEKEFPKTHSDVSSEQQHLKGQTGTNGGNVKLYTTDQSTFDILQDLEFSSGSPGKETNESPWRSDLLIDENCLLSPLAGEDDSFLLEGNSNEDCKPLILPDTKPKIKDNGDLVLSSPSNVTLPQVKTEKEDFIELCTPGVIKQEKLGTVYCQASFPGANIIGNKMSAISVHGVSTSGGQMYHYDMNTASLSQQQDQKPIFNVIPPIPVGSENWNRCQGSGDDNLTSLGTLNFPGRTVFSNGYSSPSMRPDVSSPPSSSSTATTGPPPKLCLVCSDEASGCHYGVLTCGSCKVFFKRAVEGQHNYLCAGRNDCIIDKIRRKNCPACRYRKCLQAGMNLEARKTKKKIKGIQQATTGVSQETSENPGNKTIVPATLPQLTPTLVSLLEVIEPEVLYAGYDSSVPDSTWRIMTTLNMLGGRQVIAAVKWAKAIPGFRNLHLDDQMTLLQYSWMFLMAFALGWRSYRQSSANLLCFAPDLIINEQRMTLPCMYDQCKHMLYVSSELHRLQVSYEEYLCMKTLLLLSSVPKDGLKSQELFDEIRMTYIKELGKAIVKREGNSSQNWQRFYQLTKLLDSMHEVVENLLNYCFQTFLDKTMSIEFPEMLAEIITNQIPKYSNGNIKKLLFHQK
How it was run: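 Fluorescence polarization competition with recombinant GR and GS Red fluorescent ligand plus stabilizing peptide and DTT in potassium phosphate/sodium molybdate/EDTA buffer with DMSO. Incubated 2 hours at room temperature in the dark; 0% control DMSO, 100% control 10 μM dexamethasone.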

Row | Structure (SMILES) | IC50 [nM]
1 | C[C@]12Cc3cnn(-c4ccc(F)cc4)c3C=C1CC[C@@H]1[C@@H]2[C@@H](O)C[C@@]2(C)[C@H]1CC[C@]2(OC(=O)c1cocn1)C(=O)SCC#N [Example 43, (1R,3aS,3bS,10aR,10bS,11S,12aS)-1-{[(Cyanomethyl)thio]carbonyl}-7-(4-fluoro-phenyl)-11-hydroxy-10a,12a-dimethyl-1,2,3,3a,3b,4,5,7,10,10a,10b,11,12,12a-tetradecahydrocyclopenta[5,6]naphtho[1,2-f]indazol-1-yl 1,3-oxazole-4-carboxylate] | 2.7
2 | C[C@@H]1C[C@H]2[C@@H]3CCC4=Cc5c(cnn5-c5ccc(F)cc5)C[C@]4(C)[C@H]3[C@@H](O)C[C@]2(C)[C@@]1(OC(=O)c1ccco1)C(=O)SCC#N [Example 141, (1R,2R,3aS,3bS,10aR,10bS,11S,12aS)-1-{[(Cyanomethyl)thio]carbonyl}-7-(4-fluorophenyl)-11-hydroxy-2,10a,12a-trimethyl-1,2,3,3a,3b,4,5,7,10,10a,10b,11,12,12a-tetradecahydrocyclopenta[5,6]naphtho[1,2-f]indazol-1-yl furan-2-carboxylate] | 13
3 | COCSC(=O)[C@@]1(OC(=O)C2CC2)CC[C@H]2[C@@H]3CCC4=Cc5c(cnn5-c5ccc(F)nc5)C[C@]4(C)[C@H]3[C@@H](O)C[C@@]21C [Example 154, (1R,3aS,3bS,10aR,10bS,11S,12aS)-7-(6-Fluoropyridin-3-yl)-11-hydroxy-1-{[(methoxymethyl)sulfanyl]carbonyl}-10a,12a-dimethyl-1,2,3,3a,3b,4,5,7,10,10a,10b,11,12,12a-tetradecahydrocyclopenta[5,6]naphtho[1,2-f]indazol-1-yl cyclopropanecarboxylate] | 5.9
4 | C[C@]12Cc3cnn(-c4ccc(F)cc4)c3C=C1CC[C@@H]1[C@@H]2[C@@H](O)C[C@@]2(C)[C@H]1CC[C@]2(OC(=O)CC1CCCC1)C(=O)SCC#N [Example 114, (1R,3aS,3bS,10aR,10bS,11S,12aS)-1-{[(Cyanomethyl)sulfanyl]carbonyl}-7-(4-fluorophenyl)-11-hydroxy-10a,12a-dimethyl-1,2,3,3a,3b,4,5,7,10,10a,10b,11,12,12a-tetradecahydrocyclopenta[5,6]naphtho[1,2-f]indazol-1-yl cyclopentylacetate] | 16
5 | C[C@]12Cc3cnn(-c4ccc(F)c(F)c4)c3C=C1CC[C@@H]1[C@@H]2[C@@H](O)C[C@@]2(C)[C@H]1CC[C@]2(OC(=O)c1ccco1)C(=O)SCC#N [Example 103, (1R,3aS,3bS,10aR,10bS,11S,12aS)-1-{[(Cyanomethyl)thio]carbonyl}-7-(3,4-difluorophenyl)-11-hydroxy-10a,12a-dimethyl-1,2,3,3a,3b,4,5,7,10,10a,10b,11,12,12a-tetradecahydrocyclopenta[5,6]naphtho[1,2-f]indazol-1-yl furan-2-carboxylate] | 6.4
6 | COCSC(=O)[C@@]1(OC(=O)c2cocn2)CC[C@H]2[C@@H]3CCC4=Cc5c(cnn5-c5ccc(F)nc5)C[C@]4(C)[C@H]3[C@@H](O)C[C@@]21C [Example 163, (1R,3aS,3bS,10aR,10bS,11S,12aS)-7-(6-Fluoropyridin-3-yl)-11-hydroxy-1-{[(methoxymethyl)sulfanyl]carbonyl}-10a,12a-dimethyl-1,2,3,3a,3b,4,5,7,10,10a,10b,11,12,12a-tetradecahydrocyclopenta[5,6]naphtho[1,2-f]indazol-1-yl 1,3-oxazole-4-carboxylate] | 1.7
7 | C[C@]12Cc3cnn(-c4cnccn4)c3C=C1CC[C@@H]1[C@@H]2[C@@H](O)C[C@@]2(C)[C@H]1CC[C@]2(OC(=O)C1CC1)C(=O)SCCO [Example 190, (1R,3aS,3bS,10aR,10bS,11S,12aS)-11-Hydroxy-{[(2-hydroxyethyl)sulfanyl]carbonyl}-10a,12a-dimethyl-7-pyrazin-2-yl-1,2,3,3a,3b,4,5,7,10,10a,10b,11,12,12a-tetradecahydrocyclopenta[5,6]naphtho[1,2-f]indazol-1-yl cyclopropane carboxylate] | 3.7
8 | CSCO[C@]1(C(=O)SCF)CC[C@H]2[C@@H]3CCC4=Cc5c(cnn5-c5ccc(F)cc5)C[C@]4(C)[C@H]3[C@@H](O)C[C@@]21C [Example 125, S-(Fluoromethyl)(1R,3aS,3bS,10aR,10bS,11S,12aS)-7-(4-fluorophenyl)-11-hydroxy-10a,12a-dimethyl-1-[(methylsulfanyl)methoxy]1,2,3,3a,3b,4,5,7,10,10a,10b,11,12,12a-tetradecahydrocyclopenta[5,6]naphtho[1,2-f]indazole-1-carbothioate] | 4.7
9 | COCc1cc(-n2ncc3c2C=C2CC[C@@H]4[C@H]([C@@H](O)C[C@@]5(C)[C@H]4CC[C@]5(OC(=O)c4ccco4)C(=O)SCF)[C@@]2(C)C3)ccc1F [Example 74, (1R,3aS,3bS,10aR,10bS,11S,12aS)-7-[4-Fluoro-3-(methoxymethyl)phenyl]-1-{[(fluoromethyl)thio]carbonyl}-11-hydroxy-10a,12a-dimethyl-1,2,3,3a,3b,4,5,7,10,10a,10b,11,12,12a-tetradecahydrocyclopenta[5,6]naphtho[1,2-f]indazol-1-yl furan-2-carboxylate] | 22
10 | C[C@]12Cc3cnn(-c4ccc(F)cc4)c3C=C1CC[C@@H]1[C@@H]2[C@@H](O)C[C@@]2(C)[C@H]1CC[C@]2(OC(=O)c1ccco1)C(=O)SCCO [Example 91, (1R,3aS,3bS,10aR,10bS,11S,12aS)-7-(4-fluorophenyl)-11-hydroxy-1-{[(2-hydroxyethyl)sulfanyl]carbonyl}-10a,12a-dimethyl-1,2,3,3a,3b,4,5,7,10,10a,10b,11,12,12a-tetradecahydrocyclopenta[5,6]naphtho[1,2-f]indazol-1-yl furan-2-carboxylate] | 3.7
11 | CCSC(=O)[C@@]1(OC(=O)c2snnc2C)CC[C@H]2[C@@H]3CCC4=Cc5c(cnn5-c5ccc(F)cc5)C[C@]4(C)[C@H]3[C@@H](O)C[C@@]21C [Example 5, (1R,3aS,3bS,10aR,10bS,11S,12aS)-1-[(Ethylthio)carbonyl]-7-(4-fluorophenyl)-11-hydroxy-10a,12a-dimethyl-1,2,3,3a,3b,4,5,7,10,10a,10b,11,12,12a-tetradecahydrocyclopenta[5,6]naphtho[1,2-f]indazol-1-yl 4-methyl-1,2,3-thiadiazole-5-carboxylate] | 15
12 | CSCOC(=O)[C@@]1(O)CC[C@H]2[C@@H]3CCC4=Cc5c(cnn5-c5ccc(F)cc5)C[C@]4(C)[C@H]3[C@@H](O)C[C@@]21C [Example 117, (Methylsulfanyl)methyl(1R,3aS,3bS,10aR,10bS,11S,12aS)-7-(4-fluorophenyl)-1,11-dihydroxy-10a,12a-dimethyl-1,2,3,3a,3b,4,5,7,10,10a,10b,11,12,12a-tetradecahydrocyclopenta[5,6]naphtho[1,2-f]indazole-1-carboxylate] | 7
13 | C[C@]12Cc3cnn(-c4ccc(F)cc4)c3C=C1CC[C@@H]1[C@@H]2[C@@H](O)C[C@@]2(C)[C@H]1CC[C@]2(OC(=O)c1cocn1)C(=O)SCCO [Example 44, (1R,3aS,3bS,10aR,10bS,11S,12aS)-7-(4-Fluorophenyl)-11-hydroxy-1-{[(2-hydroxy-ethyl)thio]carbonyl}-10a,12a-dimethyl-1,2,3,3a,3b,4,5,7,10,10a,10b,11,12,12a-tetradecahydrocyclopenta[5,6]naphtho[1,2-f]indazol-1-yl 1,3-oxazole-4-carboxylate] | 2.9
14 | CC(C)C(=O)O[C@]1(C(=O)SCC#N)CC[C@H]2[C@@H]3CCC4=Cc5c(cnn5-c5ccc(F)cc5)C[C@]4(C)[C@H]3[C@@H](O)C[C@@]21C [Example 111, (1R,3aS,3bS,10aR,10bS,11S,12aS)-1-{[(Cyanomethyl)sulfanyl]carbonyl}-7-(4-fluorophenyl)-11-hydroxy-10a,12a-dimethyl-1,2,3,3a,3b,4,5,7,10,10a,10b,11,12,12a-tetradecahydrocyclopenta[5,6]naphtho[1,2-f]indazol-1-yl 2-methylpropanoate] | 6.3
15 | CSCC(=O)[C@@]1(OC(C)=O)CC[C@H]2[C@@H]3CCC4=Cc5c(cnn5-c5ccc(F)cc5)C[C@]4(C)[C@H]3[C@@H](O)C[C@@]21C [Example 124, (1R,3aS,3bS,10aR,10bS,11S,12aS)-7-(4-Fluorophenyl)-11-hydroxy-10a,12a-dimethyl-1-[(methylsulfanyl)acetyl]-1,2,3,3a,3b,4,5,7,10,10a,10b,11,12,12a-tetradecahydrocyclopenta[5,6]naphtho[1,2-f]indazol-1-yl acetate] | 2.4
16 | C[C@]12Cc3cnn(-c4ccc(F)cc4)c3C=C1CC[C@@H]1[C@@H]2[C@@H](O)C[C@@]2(C)[C@H]1CC[C@]2(OC(=O)[C@H]1CCCO1)C(=O)SCC#N (single isomer, unassigned) [Example 128] | 3.8
